Laboratory results: patent EP0629402A1, “Pharmaceutical compositions containing ipsapirone” (BAYER AG, priority 1993, dated 1994)

Experiment: Pharmacokinetic studies: bioavailability after oral administration
Conditions: in vivo, nach oraler Gabe, read-out: Bioverfügbarkeit
From the text: Als Ergebnis pharmakokinetischer Untersuchungen wurde festgestellt, daß Ipsapiron nach oraler Gabe eine Bioverfügbarkeit von nur 40 % aufweist. Ein erheblicher Wirkstoffanteil wird bereits präsystemisch metabolisiert und kann nicht bioverfügbar werden. Dies ist nachteilig, weil dieser Substanzverlust durch eine erhöhte Wirkstoffdosis ausgeglichen werden muß. Es resultieren große, für den Patienten schlecht schluckbare Arzneiformen und eine erhebliche Belastung des Patienten mit pharmakologisch inaktiven Ipsapiron-Metaboliten. Ferner nehmen mit sinkender Bioverfugbarkeit die interindividuellen Schwankungen im Plasmakonzentrationsverlauf zu und die Therapie wird unkalkulierbar.

Compound: O=C1c2ccccc2S(=O)(=O)N1CCCCN1CCN(c2ncccn2)CC1 [Ipsapiron]
- bioavailability: 40%
